Tests used:
PRMT5 [1] = target: T1, PRMT5 (Homo sapiens, UniProt O14744); test: PRMT5 biochemical IC50 assay with SAM as cofactor; conditions: PRMT5, SAM as cofactor; read-out: SAM IC50
T1 construct: purchased Viva (custom protein)

PRMT5 [2] = target: T1, PRMT5; test: PRMT5 biochemical IC50 assay with no cofactor; conditions: PRMT5, no cofactor
From the text: Table 1 indicates IC50 values (μM) against PRMT5 for exemplary compounds in the presence of SAM as cofactor, with no cofactor, and with MTA as cofactor, respectively (columns 4-6). […] Ki values can be calculated from the IC50 values as described in the Examples section. As detailed in the Examples section, for the assay performed in the presence of SAM, IC50=Ki×1.5 (Ki=IC50/1.5).

PRMT5 [3] = target: T1, PRMT5; test: PRMT5 biochemical IC50 assay with MTA as cofactor; conditions: PRMT5, MTA as cofactor; read-out: MTA IC50
[4] = system: HAP1 MTAP-intact cell line; test: SDMA in-cell western assay, HAP1 MTAP-intact; format: cell-based; conditions: Homo sapiens, HAP1, SDMA in-cell western, HAP1 MTAP-intact; read-out: MTAP HAP1 intact IC50
In short: (§1)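 Compounds were tested in HAP1 cells differing only in MTAP status (endogenous expression versus null). Cellular SDMA levels were then measured by in-cell western, giving an IC50 in each background.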

[5] = system: HAP1 MTAP-deleted cell line; test: SDMA in-cell western assay, HAP1 MTAP-deleted; format: cell-based; conditions: for IC50: Homo sapiens, HAP1, SDMA in-cell western, HAP1 MTAP-deleted; for MTAP intact/deleted ratio: IC50 ratio HAP1 MTAP-intact / HAP1 MTAP-deleted, SDMA in-cell western
In short: as §1

[6] = system: HAP1 MTAP-deleted cell line; test: Viability assay, MTAP-deleted cell line; format: cell-based; conditions: Homo sapiens, HAP1, viability assay, read-out: HAP1 MTAP deleted viability
From the text: Table 1 additionally indicates IC50 values in a viability assay for the MTAP-deleted cell line (column 10), indicating the effect of treatment with compound on cell survival.

[7] = read-out: No Cofactor/ rel IC50
[8] = read-out: HAP 1 MTAP deleted IC50
[9] = read-out: HAP1 MTAP deleted IC50

T1 sequence (O14744 whole entry): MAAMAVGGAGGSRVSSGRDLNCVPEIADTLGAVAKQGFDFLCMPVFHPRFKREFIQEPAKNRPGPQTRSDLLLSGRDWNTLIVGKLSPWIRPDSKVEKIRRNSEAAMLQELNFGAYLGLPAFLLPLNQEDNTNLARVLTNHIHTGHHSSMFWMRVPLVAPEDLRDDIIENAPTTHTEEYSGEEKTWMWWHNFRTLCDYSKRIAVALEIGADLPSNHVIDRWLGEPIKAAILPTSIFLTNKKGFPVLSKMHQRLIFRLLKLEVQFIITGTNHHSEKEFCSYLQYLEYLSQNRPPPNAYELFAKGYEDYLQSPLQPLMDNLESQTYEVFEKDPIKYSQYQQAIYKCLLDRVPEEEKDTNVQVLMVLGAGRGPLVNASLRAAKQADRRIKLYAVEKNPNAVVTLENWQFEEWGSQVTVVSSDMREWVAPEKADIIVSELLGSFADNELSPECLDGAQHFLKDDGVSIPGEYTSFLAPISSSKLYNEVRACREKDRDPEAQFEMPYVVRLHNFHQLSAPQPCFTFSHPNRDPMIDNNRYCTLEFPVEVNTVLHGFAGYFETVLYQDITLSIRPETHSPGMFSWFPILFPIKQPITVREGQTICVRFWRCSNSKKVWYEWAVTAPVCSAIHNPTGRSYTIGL
T1 sequence (Q9BQA1 whole entry partner): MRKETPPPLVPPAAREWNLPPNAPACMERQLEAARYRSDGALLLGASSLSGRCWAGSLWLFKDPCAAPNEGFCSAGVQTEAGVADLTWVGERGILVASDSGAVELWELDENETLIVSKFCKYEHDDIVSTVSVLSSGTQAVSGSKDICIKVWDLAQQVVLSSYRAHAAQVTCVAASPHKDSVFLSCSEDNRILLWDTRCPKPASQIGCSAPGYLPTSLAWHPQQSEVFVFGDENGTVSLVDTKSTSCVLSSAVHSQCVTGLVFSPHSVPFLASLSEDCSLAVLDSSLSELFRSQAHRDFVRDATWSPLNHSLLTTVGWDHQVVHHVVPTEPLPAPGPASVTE

Compound	IC50 (PRMT5 [1]) [nM]	IC50 (PRMT5 [2]; [7]) [nM]	IC50 (PRMT5 [3]) [nM]	IC50 [4] [nM]	IC50 [5, 8] [nM]	MTAP intact/deleted ratio [5]	IC50 ([6]; MTAP-deleted cell line) [nM]	IC50 (PRMT5 [2]; read-out: No Cofactor/rel IC50) [nM]	IC50 [5, 9] [nM]	IC50 ([6]; HAP1 MTAP-deleted) [nM]
NC(=O)c1cncc(NC(=O)C(=O)N2CCCC3(CCSCC3)C2)c1 [Compound 166, 5-(2-Oxo-2-{9-thia-2-azaspiro[5.5]undecan-2-yl}acetamido)pyridine-3-carboxamide]	> 500	> 500	50 to 500	> 1000	> 1000	C (an IC50 ratio of less than 3 fold)	> 10000	–	–	–
NC(=O)c1cncc(NC(=O)C(=O)N2CCCCC2C2CCC(F)(F)CC2)c1 (stereo not shown) [Compound 170, 5-[[2-[2-(4,4-difluorocyclohexyl)-1-piperidyl]-2-oxo-acetyl]amino]pyridine-3-carboxamide]	50 to 500	> 500	50 to 500	> 1000	100 to 1000	A (an IC50 ratio greater than or equal to 10 fold)	> 10000	–	–	–
Cc1cc(NC(=O)C(=O)N2CCCCC2C2CCC2)cnc1N (stereo not shown) [Compound 182, N-(6-amino-5-methyl-3-pyridyl)-2-(2-cyclobutyl-1-piperidyl)-2-oxo-acetamide]	50 to 500	–	< 50	> 1000	–	A (an IC50 ratio greater than or equal to 10 fold)	> 10000	50 to 500	100 to 1000	–
CC1CC(C)C(c2ccccc2)N(C(=O)C(=O)Nc2cncc(C(N)=O)c2)C1 (stereo not shown) [Compound 183, 5-(2-(3,5-dimethyl-2-phenylpiperidin-1-yl)-2-oxoacetamido)nicotinamide]	> 500	–	> 500	> 1000	–	C (an IC50 ratio of less than 3 fold)	> 10000	> 500	> 1000	–
Cc1cncc(NC(=O)C(=O)N2CCCCC2c2ccccc2)c1N (stereo not shown) [Compound 184, N-(4-amino-5-methylpyridin-3-yl)-2-oxo-2-(2-phenylpiperidin-1-yl)acetamide]	> 500	–	50 to 500	> 1000	–	C (an IC50 ratio of less than 3 fold)	> 10000	> 500	> 1000	–
Cc1cc(NC(=O)C(=O)N2CCCCC2C2CCC(F)(F)CC2)cnc1N (stereo not shown) [Compound 186, N-(6-amino-5-methyl-3-pyridyl)-2-[2-(4,4-difluorocyclohexyl)-1-piperidyl]-2-oxo-acetamide]	50 to 500	–	50 to 500	> 1000	–	A (an IC50 ratio greater than or equal to 10 fold)	> 10000	50 to 500	100 to 1000	–
NC(=O)c1cncc(NC(=O)C(=O)N2CCC3(CCOCC3)CC2)c1 [Compound 191, 5-[[2-(3-Oxa-9-azaspiro[5.5]undecan-9-yl)-2-oxo-acetyl]amino]pyridine-3-carboxamide]	> 500	–	50 to 500	> 1000	–	C (an IC50 ratio of less than 3 fold)	> 10000	> 500	> 1000	–
NC(=O)c1cncc(NC(=O)C(=O)N2CCC3(CC2)CCS(=O)(=O)CC3)c1 [Compound 195, 5-(2-(3,3-Dioxido-3-thia-9-azaspiro[5.5]undecan-9-yl)-2-oxoacetamido)nicotinamide]	> 500	–	50 to 500	> 1000	–	C (an IC50 ratio of less than 3 fold)	> 10000	> 500	> 1000	–
NC(=O)c1cncc(NC(=O)C(=O)N2CCC3(CCCCC3)CC2)c1 [Compound 203, 5-[[2-(3-Azaspiro[5.5]undecan-3-yl)-2-oxo-acetyl]amino]pyridine-3-carboxamide]	50 to 500	–	< 50	> 1000	–	A (an IC50 ratio greater than or equal to 10 fold)	> 10000	> 500	100 to 1000	–
Cc1cc(NC(=O)C(=O)N2CC(C)CCC2C2CNC(=O)C2)cnc1N (stereo not shown) [Compound 210, N-(6-amino-5-methylpyridin-3-yl)-2-(5-methyl-2-(5-oxopyrrolidin-3-yl)piperidin-1-yl)-2-oxoacetamide]	> 500	–	50 to 500	> 1000	–	B (an IC50 ratio greater than or equal to 3 fold but lower than 10 fold)	> 10000	50 to 500	> 1000	–
Cc1cc(NC(=O)C(=O)N2CCCCC2C23CC(C(F)(F)F)(C2)C3)cnc1N (stereo not shown) [Compound 217, N-(6-amino-5-methyl-3-pyridyl)-2-oxo-2-[2-[3-(trifluoromethyl)-1-bicyclo[1.1.1]pentanyl]-1-piperidyl]acetamide]	50 to 500	–	50 to 500	> 1000	–	B (an IC50 ratio greater than or equal to 3 fold but lower than 10 fold)	> 10000	> 500	> 1000	–
CCC(C)C1CCCCN1C(=O)C(=O)Nc1cnc(N)c(C)c1 (stereo not shown) [Compound 232, N-(6-amino-5-methyl-3-pyridyl)-2-oxo-2-(2-sec-butyl-1-piperidyl)acetamide]	> 500	–	50 to 500	> 1000	–	B (an IC50 ratio greater than or equal to 3 fold but lower than 10 fold)	> 10000	> 500	> 1000	–
NC(=O)c1cncc(NC(=O)C(=O)N2CCCCC2C2CCCC2)c1 (stereo not shown) [Compound 240, 5-(2-(2-cyclopentylpiperidin-1-yl)-2-oxoacetamido)nicotinamide]	50 to 500	–	< 50	> 1000	–	A (an IC50 ratio greater than or equal to 10 fold)	> 10000	50 to 500	100 to 1000	–
C[C@@H]1CC[C@@H](c2ccc(F)cc2)N(C(=O)C(=O)Nc2cncc(C(N)=O)c2)C1 [Compound 302, 5-[[2-[(2S,5R)-2-(4-fluorophenyl)-5-methyl-1-piperidyl]-2-oxo-acetyl]amino]pyridine-3-carboxamide]	> 500	–	> 500	> 1000	–	C (an IC50 ratio of less than 3 fold)	> 10000	> 500	> 1000	–
CNc1ccc([C@H]2CC[C@H](C)CN2C(=O)C(=O)Nc2cncc(C(N)=O)c2)cc1 [Compound 438, 5-[[2-[(2R,5S)-5-methyl-2-[4-(methylamino)phenyl]-1-piperidyl]-2-oxo-acetyl]amino]pyridine-3-carboxamide]	< 50	–	< 50	> 1000	–	A (an IC50 ratio greater than or equal to 10 fold)	< 1000	< 50	< 100	–
Cc1cc(NC(=O)C(=O)N2CC3(CCC2c2ccc(F)cc2)CC3)cnc1N (stereo not shown) [Compound 753]	50 to 500	–	< 50	> 1000	–	A (an IC50 ratio greater than or equal to 10 fold)	–	50 to 500	100 to 1000	1000 to 10000

From patent publication US11999727B2 (Tango Therapeutics, Inc., priority 2020, dated 2024)
